The values that follow come from US20230183243A1, “HETEROARYL DERIVATIVES AND PHARMACEUTICAL COMPOSITION COMPRISING SAME AS ACTIVE INGREDIENT” (VORONOI INC., priority 2019, published 2023).

In one assay the test system is MDA-MB-231 cells. Put plainly: Inhibition of proliferation of triple-negative breast cancer cells, CellTiter-Glo. The format is cell-based. The note with it: Homo sapiens, 120 h; MDA-MB-231, cultured for 5 days. In short, it runs like this: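 MDA-MB-231 cells pre-cultured 24 h (5% CO2, 37 °C), then exposed to compound for 5 days at 12 three-fold dilutions, final 10 μM to 0.05 nM. Viability read by CellTiter-Glo luminescence after 10 min at 37 °C; growth inhibition calculated relative to untreated solvent-control cells.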

The next assay concerns SHP-77. Put plainly: Inhibition of proliferation of small cell lung cancer cells, CellTiter-Glo. The format is cell-based. The note with it: Homo sapiens, SHP77, 120 h; SHP-77, cultured for 5 days. The protocol: Specifically, the following test was performed to evaluate the inhibitory activity of the compound according to the present invention against the cell proliferation in the SCLC cells.
To check an inhibitory ability of cell growth in one SCLC cell line, a test was performed as follows. Cells were seeded in 180 μL of a culture broth at a density of 2,000 to 3,000 cells/well in a white clear bottom 96-well plate (Corning) according to the growth ability of each cell, and then cultured for 24 hours under conditions of 5% CO2 and 37° C. Thereafter, the compound was prepared by diluting a 10 mM stock solution three-fold with 100% DMSO at a total of 12 concentrations so that a peak concentration of the compound was in a range of 10 mM to 0.05 μM, and the diluted compound was then diluted in each cell culture medium so that a final concentration of the compound was in a range of 100 μM to 0.5 nM. 20 μL of a diluted solution diluted with a medium was added to the cell solution in which cells were seeded in the 96-well plate on the previous day so that a final concentration of the diluted solution was in a range of 10 μM to 0.05 nM. Each of the cells was cultured for 5 days. To check cell viability, a mixture provided in aCellTiter-Glo® Luminescent Cell Viability Assay Kit (Promega) was added to each of the cultured cell media, and cultured for another 10 minutes under a condition of 37° C. Then, a degree of luminescence (fluorescence) was measured. A degree of inhibition of the cell growth according to the treatment concentration of each of the compounds was calculated based on the fluorescence of the solvent control cells which were not treated with the compound. In this case, the concentration of each of the compounds inhibiting 50% of the cell growth was determined to be a GI50 (nM) value, and calculated using Prism (Version 7.01; GraphPad) software.
Background: Cellular ATP, detected with luciferase, serves as a proxy for viable cell number.

A further assay deals with T1, TTK (Homo sapiens, UniProt P33981).
T1 sequence (P33981 1-857): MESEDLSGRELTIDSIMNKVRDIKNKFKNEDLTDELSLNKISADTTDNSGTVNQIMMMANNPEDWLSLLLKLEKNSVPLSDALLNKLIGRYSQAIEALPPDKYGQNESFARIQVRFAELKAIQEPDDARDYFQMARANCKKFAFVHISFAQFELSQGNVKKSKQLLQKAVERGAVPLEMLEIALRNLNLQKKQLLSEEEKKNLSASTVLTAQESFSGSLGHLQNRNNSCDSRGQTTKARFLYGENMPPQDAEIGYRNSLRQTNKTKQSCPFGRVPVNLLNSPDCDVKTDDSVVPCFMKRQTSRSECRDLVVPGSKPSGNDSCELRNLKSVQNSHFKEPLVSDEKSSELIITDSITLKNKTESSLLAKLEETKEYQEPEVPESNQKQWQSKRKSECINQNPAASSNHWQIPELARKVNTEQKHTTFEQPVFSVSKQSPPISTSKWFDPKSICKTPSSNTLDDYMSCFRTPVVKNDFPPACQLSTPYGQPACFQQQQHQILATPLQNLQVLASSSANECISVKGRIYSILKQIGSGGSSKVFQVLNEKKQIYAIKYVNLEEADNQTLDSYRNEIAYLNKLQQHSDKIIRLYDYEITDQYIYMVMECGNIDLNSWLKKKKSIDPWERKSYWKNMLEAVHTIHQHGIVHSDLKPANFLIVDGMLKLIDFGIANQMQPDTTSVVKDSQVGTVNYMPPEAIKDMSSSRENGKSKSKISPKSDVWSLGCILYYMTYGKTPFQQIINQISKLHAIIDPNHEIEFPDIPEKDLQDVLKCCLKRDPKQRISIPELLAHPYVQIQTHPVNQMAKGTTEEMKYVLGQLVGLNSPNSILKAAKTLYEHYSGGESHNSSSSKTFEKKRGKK
The assay is described as follows: TTK enzyme activity, ADP-Glo kinase assay. The note with it: purified human TTK, ATP 10 μM, 25° C., 2 hours. Details: purchased SignalChem T20-10G. Type of assay: biochemical. In short, it runs like this: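 Purified human TTK (25 ng) incubated with 10 μM ATP and substrate (0.2 μg) for 2 h at 25 °C in Tris-HCl pH 7.4, MgCl2, BSA, DTT buffer. ADP formation read by ADP-Glo; inhibition calculated against untreated solvent control.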
(In general: ADP-Glo first removes unused ATP, then detects ADP through luciferase.)

In general, GI50 refers to the concentration at which growth is held to half of that of the control. Low readings indicate greater sensitivity of the cells, high ones lower sensitivity of the cells. Usually IC50 stands for the midpoint of a concentration-inhibition curve. A low value points to greater potency in that assay. Regarding `COc1cc(N2CCCCS2(=O)=O)ccc1Nc1nc(NC2CCOCC2)c2c(C(F)(F)F)c[nH]c2n1` [Example 175, 2-(3-methoxy-4-((4-((tetrahydro-2H-pyran-4-yl)amino)-5-(trifluoromethyl)-7H-pyrrolo[2,3-d]pyrimidin-2-yl)amino)phenyl)-1,2-thiazinane 1,1-dioxide], the GI50 in the assay with MDA-MB-231 cells and in the assay on SHP-77 was less than 100 nM each time. The compound also returned a half-inhibitory concentration (IC50) against TTK of less than 50 nM.

Consider `CC(C)S(=O)(=O)CCNc1nc(Nc2ccc(-c3ccnn3C)c3c2OCCO3)nc2[nH]cc(C#N)c12` [Example 83, 4-((2-(isopropylsulfonyl)ethyl)amino)-2-((8-(1-methyl-1H-pyrazol-5-yl)-2,3-dihydrobenzo[b][1,4]dioxin-5-yl)amino)-7H-pyrrolo[2,3-d] pyrimidine-5-carbonitrile 2,2,2-trifluoroacetate], for which the concentration for 50% growth inhibition (GI50) in the assay on MDA-MB-231 cells and with SHP-77 was 100 to 1000 nM each time. For the same compound, on TTK, the IC50 is less than 50 nM.

For the compound `COc1cc(-c2cnn(C)c2)ccc1Nc1nc(NC2CCOCC2)c2c(C(F)(F)F)c[nH]c2n1` [Example 118, N^2-(2-methoxy-4-(1-methyl-1H-pyrazol-4-yl)phenyl)-N^4-(tetrahydro-2H-pyran-4-yl)-5-(trifluoromethy1)-7H-pyrrolo[2,3-d] pyrimidine-2,4-diamine], the GI50 in the assay on MDA-MB-231 cells and in the assay with SHP-77 was less than 100 nM throughout. The same compound yielded an IC50 on TTK of less than 50 nM.

Take `COc1cc(-c2cnn(C)c2)c(F)cc1Nc1nc(NC2CCOCC2)c2c(C#N)c[nH]c2n1` [Example 124, 2-((5-fluoro-2-methoxy-4-(1-methyl-1H-pyrazol-4-yl)phenyl)amino)-4-((tetrahydro-2H-pyran-4-yl)amino)-7H-pyrrolo[2,3-d] pyrimidine-5-carbonitrile]: the GI50 with MDA-MB-231 cells and in the assay on SHP-77 was less than 100 nM each time. On TTK, the IC50 is less than 50 nM.

With `COc1cc(-c2nncn2C)ccc1Nc1nc(NC2CCOC(C)(C)C2)c2c(C#N)c[nH]c2n1` (stereo not drawn) [Example 143, 4-((2,2-dimethyltetrahydro-2H-pyran-4-yl)amino)-2-((2-methoxy-4-(4-methyl-4H-1,2,4-triazol-3-yl)phenyl)amino)-7H-pyrrolo[2,3-d] pyrimidine-5-carbonitrile], the GI50 in the assay with MDA-MB-231 cells and with SHP-77 was less than 100 nM each time. The compound also came in with an IC50 at TTK of less than 50 nM.

With `COc1cc(Nc2nc(NC3CCCCC3)c3c(C#N)c[nH]c3n2)ccc1-c1ccnn1C` [Example 121, 4-(cyclohexylamino)-2-((3-methoxy-4-(1-methyl-1H-pyrazol-5-yl)phenyl)amino)-7H-pyrrolo[2,3-d] pyrimidine-5-carbonitrile], the GI50 in the assay with MDA-MB-231 cells and in the assay on SHP-77 was less than 100 nM each time. The compound further gave an IC50 on TTK of less than 50 nM.

As for `COc1cc(-c2ccnn2C)ccc1Nc1nc(NC2CCOC(C)(C)C2)c2c(C#N)c[nH]c2n1` (stereo not drawn) [Example 115, 4-((2,2-dimethyltetrahydro-2H-pyran-4-yl)amino)-2-((2-methoxy-4-(1-methyl-1H-pyrazol-5-yl)phenyl)amino)-7H-pyrrolo[2,3-d] pyrimidine-5-carbonitrile], the 50% growth inhibitory concentration (GI50) with MDA-MB-231 cells and in the assay on SHP-77 was less than 100 nM each time. In addition, the IC50 on TTK was less than 50 nM.

With `Cn1nccc1-c1ccc(Nc2nc(NC3CCCC(F)(F)C3)c3c(C#N)c[nH]c3n2)c2c1OCCO2` (stereo not drawn) [Example 153], the GI50 with MDA-MB-231 cells and in the assay with SHP-77 was less than 100 nM each time. The concentration for half-maximal inhibition (IC50) against TTK is 50 to 200 nM.

Turning to `Cn1nccc1-c1ccc(Nc2nc(NC3CCCC3)c3c(C#N)c[nH]c3n2)c2c1OCCO2` [Example 38, 4-(cyclopentylamino)-2-((8-(1-methyl-1H-pyrazol-5-yl)-2,3-dihydrobenzo[b][1,4]dioxin-5-yl)amino)-7H-pyrrolo[2,3-d] pyrimidine-5-carbonitrile], the GI50 with MDA-MB-231 cells and with SHP-77 was less than 100 nM each time. This compound had an IC50 on TTK of less than 50 nM.

Consider `COc1cc(Nc2nc(NC3CCOCC3)c3c(C#N)c[nH]c3n2)ccc1-c1ccnn1C` [Example 119, 2-((3-methoxy-4-(1-methyl-1H-pyrazol-5-yl)phenyl)amino)-4-((tetrahydro-2H-pyran-4-yl)amino)-7H-pyrrolo[2,3-d] pyrimidine-5-carbonitrile], for which the GI50 in the assay on MDA-MB-231 cells and in the assay with SHP-77 was less than 100 nM in each case. Also, the IC50 against TTK was less than 50 nM.

Regarding `COC[C@@H](C)Nc1nc(Nc2ccc(-c3ccnn3C)c3c2OCCO3)nc2[nH]cc(C#N)c12` [Example 101], the GI50 with MDA-MB-231 cells and in the assay with SHP-77 was less than 100 nM in each case. Further, the 50% inhibitory concentration (IC50) on TTK is less than 50 nM.

On to `COc1cc(-c2ccnn2C)ccc1Nc1nc(C2CC2)c2c(C#N)c[nH]c2n1` [Example 111, 4-cyclopropyl-2-((2-methoxy-4-(1-methyl-1H-pyrazol-5-yl)phenyl)amino)-7H-pyrrolo[2,3-d] pyrimidine-5-carbonitrile], for which the concentration for 50% growth inhibition (GI50) with MDA-MB-231 cells and in the assay on SHP-77 was less than 100 nM each time. At TTK, the concentration for half-maximal inhibition (IC50) was less than 50 nM.

With `COCCNc1nc(Nc2ccc(-n3ccnc3C)cc2OC)nc2[nH]cc(C#N)c12` [Example 98, 2-((2-methoxy-4-(2-methyl-1H-imidazol-1-yl)phenyl)amino)-4-((2-methoxyethyl)amino)-7H-pyrrolo[2,3-d] pyrimidine-5-carbonitrile], the GI50 with MDA-MB-231 cells and in the assay on SHP-77 was less than 100 nM in each case. Also, at TTK, the IC50 is less than 50 nM.

As for `COc1cc(-c2ccnn2C)ccc1Nc1nc(NC2CCCC2)c2c(C(F)(F)F)c[nH]c2n1` [Example 132, N^4-cyclopentyl-N^2-(2-methoxy-4-(1-methyl-1H-pyrazol-5-yl)phenyl)-5-(trifluoromethyl)-7H-pyrrolo[2,3-d] pyrimidine-2,4-diamine], the concentration for 50% growth inhibition (GI50) in the assay with MDA-MB-231 cells and in the assay with SHP-77 was 100 to 1000 nM throughout. Moreover, the half-inhibitory concentration (IC50) against TTK is 50 to 200 nM.

`COCCNc1nc(Nc2ccc(-c3c(C)noc3C)cc2OC)nc2[nH]cc(C#N)c12` [Example 96]: the GI50 with MDA-MB-231 cells and in the assay on SHP-77 was less than 100 nM in each case. Further, the half-inhibitory concentration (IC50) on TTK is less than 50 nM.

As for `COc1cc(N2CCCS2(=O)=O)ccc1Nc1nc(NC2CCCC2)c2c(C#N)c[nH]c2n1` [Example 157, 4-(cyclopentylamino)-2-((4-(1,1-dioxidoisothiazolidin-2-yl)-2-methoxyphenyl)amino)-7H-pyrrolo[2,3-d] pyrimidine-5-carbonitrile], the GI50 in the assay on MDA-MB-231 cells and in the assay on SHP-77 was less than 100 nM in each case. On TTK, this compound displayed an IC50 of less than 50 nM.

Consider `Cn1cc(-c2ccc(Nc3nc(NC4CCC(F)(F)C4)c4c(C#N)c[nH]c4n3)c3c2OCCO3)cn1` (stereo not drawn) [Example 159, 4-((3,3-difluorocyclopentyl)amino)-2-((8-(1-methyl-1H-pyrazol-4-yl)-2,3-dihydrobenzo[b][1,4]dioxin-5-yl)amino)-7H-pyrrolo[2,3-d] pyrimidine-5-carbonitrile], for which the GI50 in the assay on MDA-MB-231 cells and with SHP-77 was less than 100 nM in each case. The concentration for half-maximal inhibition (IC50) at TTK is less than 50 nM.
